Where a name gives a salt, the structure may show the parent alone. Read-outs that look alike come from different tables or passages of the source.

In test [1] the target is BIR3 domain of human XIAP (residues 252-350) (Homo sapiens (Human), UniProt P98170). Kind of test: XIAP in vitro competitive displacement binding assay (fluorescence polarization). The settings on record: for IC50: read-out: IC50 or PI Xiap: IC50; for inhibition at 0.04 µM: 1 h, read-out: IC50 or PI Xiap: PI.
The target in test [2] is BIR3 domain of human cIAP-1 (residues 267-363) (Homo sapiens (Human), UniProt Q13490). Kind of test: cIAP-1 in vitro competitive displacement binding assay (fluorescence polarization; Probe A AVPIK(5&6FAM)-amide or Probe B AbuRPFK(5&6FAM)-amide). To be noted: for inhibition at […]: 3 h, read-out: IC50 or PI cIAP1: PI. (In general: Fluorescence polarisation rises when a labelled molecule tumbles more slowly, as on binding a larger partner.)

The test system of test [3] is EVSA-T (human breast carcinoma). The test is described as follows: Anti-proliferative activity, Alamar Blue assay, EVSA-T. The settings on record: Homo sapiens. It is filed as cell-based. On the technique in general: Alamar Blue is a resazurin reagent that responds to reducing activity.
The test system of test [4] is MDA-MB-231 (human breast carcinoma). The test is described as follows: Anti-proliferative activity, Alamar Blue assay, MDA-MB-231. The format is cell-based. To be noted: read-out: EC50, inhibition of cell growth.
[5] abbreviates: Probe B AbuRPFK(5&6FAM)-amide, read-out: IC50 or PI cIAP1: IC50.
[6] abbreviates: EVSA-T cell line, 72 hours, Alamar Blue, read-out: EC50, inhibition of cell growth.
Where [7] appears, read: EVSA-T, 72 hours, Alamar Blue, read-out: EVSA-T prolif (EC50).
Setting [8] is: MDA-MB-231 cell line, 72 hours, Alamar Blue.
[9] abbreviates: read-out: IC50 or PI cIAP1: IC50.
The mark [10] stands for this setting: EVSA-T, 72 h, read-out: EVSA-T prolif (EC50).

By IC50 is commonly meant the midpoint of a concentration-inhibition curve. For orientation: EC50 means the midpoint of the concentration-response curve. As for `COC[C@H]1CN[C@H](C)CN1CC(=O)N1CC(C)(C)c2cnc(Oc3c(F)cccc3F)cc21` [Example 128, 1-[6-(2,6-Difluorophenoxy)-3,3-dimethyl-1H,2H,3H-pyrrolo[3,2-c]pyridin-1-yl]-2-[(2R,5R)-2-(methoxymethyl)-5-methylpiperazin-1-yl]ethan-1-one hydrochloride], the values for the IC50 in test [1] and in test [2] (setting [5]) were 0.38 µM and 0.12 µM, respectively. The EC50 in test [3] (setting [6]) was less than 10 µM; in test [3] (setting [7]), 1.1 µM; in test [4] (setting [8]), less than 10 µM.

Regarding `C=C(c1ccccc1)c1cc2c(cn1)C(C)(C)CN2C(=O)CN1C[C@@H](C)NC[C@@H]1COC` [Example 93, 1-[3,3-Dimethyl-6-(1-phenylethenyl)-1H,2H,3H-pyrrolo[3,2-c]pyridin-1-yl]-2-[(2R,5R)-2-(methoxymethyl)-5-methylpiperazin-1-yl]ethan-1-one, hydrochloride salt], the figures for the IC50 in test [1] and in test [2] (setting [5]) were 0.49 µM and 0.059 µM, respectively. Moreover, the EC50 in test [3] (setting [7]) is 1 µM; in test [4] (setting [8]), less than 10 µM.

With `COC[C@H]1CN[C@H](C)CN1CC(=O)N1CC(C)(C)c2cnc(-c3cc4ccccc4o3)cc21` [Example 150, 1-[6-(1-Benzofuran-2-yl)-3,3-dimethyl-1H,2H,3H-pyrrolo[3,2-c]pyridin-1-yl]-2-[(2R,5R)-2-(methoxymethyl)-5-methylpiperazin-1-yl]ethan-1-one dihydrochloride], the IC50 in test [1] came to 0.27 µM; in test [2] (setting [9]) it was 0.014 µM. Also, the EC50 was 0.73 µM in test [3] (setting [10]) and less than 10 µM in test [4] (MDA-MB-231, 72 h).

`COC[C@H]1CN[C@H](C)CN1CC(=O)N1CC(C)(C)c2cc(F)c(S(=O)(=O)c3ccccc3)cc21` [Example 58, 1-(6-Benzene-sulfonyl-5-fluoro-3,3-dimethyl-2,3-dihydro-indol-1-yl)-2-((2R,5R)-2-methoxymethyl-5-methyl-piperazin-1-yl)-ethanone hydrochloride salt]: the IC50 in test [2] (setting [5]) came to 0.045 µM. Further, the EC50 was 0.17 µM in test [3] (setting [10]) and less than 10 µM in test [4] (MDA-MB-231, 72 h).

In the case of `COC[C@H]1CN[C@H](C)CN1CC(=O)N1CC(C)(C)c2cnc(Oc3c(C)cccc3Cl)cc21` [Example 130, 1-[6-(2-Chloro-6-methylphenoxy)-3,3-dimethyl-1H,2H,3H-pyrrolo[3,2-c]pyridin-1-yl]-2-[(2R,5R)-2-(methoxymethyl)-5-methylpiperazin-1-yl]ethan-1-one hydrochloride], the IC50 in test [1] came to 0.2 µM; in test [2] (setting [5]), 0.044 µM. For the same molecule, the EC50 in test [3] (setting [6]) is less than 10 µM; in test [3] (setting [7]), 0.23 µM; in test [4] (setting [8]), less than 10 µM.

Regarding `COC[C@H]1CN[C@H](C)CN1CC(=O)N1CC(C)(C)c2cnc(Oc3c(C)cccc3C)cc21` [Example 119, 1-[6-(2,6-Dimethylphenoxy)-3,3-dimethyl-1H,2H,3H-pyrrolo[3,2-c]pyridin-1-yl]-2-[(2R,5R)-2-(methoxymethyl)-5-methylpiperazin-1-yl]ethan-1-one hydrochloride], in test [2] (setting [5]), the IC50 stood at 0.096 µM. Besides, the EC50 in test [3] (setting [10]) was 0.87 µM; in test [4] (MDA-MB-231, 72 h), less than 10 µM.

Turning to `COC[C@H]1CN[C@H](C)CN1CC(=O)N1CC(C)(C)c2cnc(Cc3cccc(F)c3)cc21` [Example 97, 1-{6-[(3-Fluorophenyl)methyl]-3,3-dimethyl-1H,2H,3H-pyrrolo[3,2-c]pyridin-1-yl}-2-[(2R,5R)-2-(methoxy-methyl)-5-methyl-piperazin-1-yl]ethan-1-one, hydrochloride salt], the IC50 in test [1] was 0.34 µM; in test [2] (setting [5]), 0.017 µM. Besides, the values for the EC50 in test [3] (setting [6]), in test [3] (setting [7]) and in test [4] (setting [8]) were less than 10 µM, 0.32 µM and less than 10 µM, respectively.

For `COC[C@H]1CN[C@H](C)CN1CC(=O)N1CC(C)(C)c2cnc(C(=O)c3ccccc3)cc21` [Example 96, 1-{6-Benzoyl-3,3-dimethyl-1H,2H,3H-pyrrolo[3,2-c]pyridin-1-yl}-2-[(2R,5R)-2-(methoxymethyl)-5-methylpiperazin-1-yl]ethan-1-one, dihydrochloride salt], the results for the IC50 in test [1] and in test [2] (setting [9]) were 0.34 µM and 0.077 µM, respectively. The EC50 in test [3] (EVSA-T, 72 h, read-out: EC50, inhibition of cell growth) was less than 10 µM; in test [3] (setting [10]), 3 µM; in test [4] (MDA-MB-231, 72 h), less than 10 µM.

With `COC[C@H]1CN[C@H](C)CN1CC(=O)N1CC(C)(C)c2cc(F)c(S(=O)(=O)c3ccc(OC)cc3)cc21` [Example 60, 1-[5-Fluoro-6-(4-methoxy-benzenesulfonyl)-3,3-dimethyl-2,3-dihydro-indol-1-yl]-2-((2R,5R)-2-methoxymethyl-5-methyl-piperazin-1-yl)-ethanone dihydrochloride salt], the EC50 is 0.69 µM in test [3] (setting [10]) and less than 10 µM in test [4] (MDA-MB-231, 72 h).

`COC[C@H]1CN[C@H](C)CN1CC(=O)N1CC(C)(C)c2cnc(Cc3ccccc3)cc21` [Example 63, 1-(6-Benzyl-3,3-dimethyl-2,3-dihydro-pyrrolo[3,2-c]pyridin-1-yl)-2-((2R,5R)-2-methoxy-methyl-5-methyl-piperazin-1-yl)-ethanone hydrochloride salt]: the EC50 in test [3] (setting [10]) is 0.1 µM; in test [4] (MDA-MB-231, 72 h), less than 10 µM.

For `COC[C@H]1CN[C@H](C)CN1CC(=O)N1CC(C)(C)c2ccc(Cc3ccccc3)cc21` [Example 94, 1-(6-Benzyl-3,3-dimethyl-2,3-dihydro-1H-indol-1-yl)-2-[(2R,5R)-2-(methoxy-methyl)-5-methyl-piperazin-1-yl]ethan-1-one, hydrochloride salt], the IC50 in test [2] (setting [5]) amounted to 0.014 µM. Further, the EC50 was 0.33 µM in test [3] (setting [10]) and less than 10 µM in test [4] (MDA-MB-231, 72 h).

As to `CC[C@@H]1COCCN1C[C@H]1CN[C@H](C)CN1CC(=O)N1CC(C)(C)c2ncc(Cc3ccc(F)cc3)cc21` [Example 254, 2-[(2R,5R)-2-{[(3R)-3-Ethylmorpholin-4-yl]methyl}-5-methylpiperazin-1-yl]-1-{6-[(4-fluorophenyl)methyl]-3,3-dimethyl-1H,2H,3H-pyrrolo[3,2-b]pyridin-1-yl}ethan-1-one dihydrochloride], the inhibition at 0.04 µM in test [1] came to 51%. For the same molecule, the inhibition at […] in test [2] came out at 98%. Besides, the EC50 in test [3] (setting [7]) turned out to be 0.0019 µM.

Take `COC[C@H]1CN[C@H](C)CN1CC(=O)N1CC(C)(C)c2cnc(C3CCCC3)cc21` [Example 92, 1-{6-Cyclopentyl-3,3-dimethyl-1H,2H,3H-pyrrolo[3,2-c]pyridin-1-yl}-2-[(2R,5R)-2-(methoxymethyl)-5-methylpiperazin-1-yl]ethan-1-one, hydrochloride salt]: the figures for the IC50 in test [1] and in test [2] (setting [5]) were 1.2 µM and 0.27 µM, respectively. The EC50 in test [3] (setting [7]) was 4.8 µM.

As for `COC[C@H]1CN[C@H](C)CN1CC(=O)N1CC(C)(C)c2cnc(C3=CCCC3)cc21` [Example 90, 1-[6-(Cyclopent-1-en-1-yl)-3,3-dimethyl-1H,2H,3H-pyrrolo[3,2-c]pyridin-1-yl]-2-[(2R,5R)-2-(methoxymethyl)-5-methylpiperazin-1-yl]ethan-1-one, hydrochloride salt], the IC50 in test [1] stood at 0.27 µM; in test [2] (setting [5]), 0.079 µM. Besides, the EC50 in test [3] (setting [7]) worked out at 0.33 µM.

As for `C[C@@H]1CN(CC(=O)N2CC(C)(C)c3ncc(Cc4ccccc4F)cc32)[C@@H](CN2CCOC[C@H]2C)CN1` [Example 261, 1-[6-(2-Fluoro-benzyl)-3,3-dimethyl-2,3-dihydro-pyrrolo[3,2-b]pyridin-1-yl]-2-[(2R,5R)-5-methyl-2-((R)-3-methyl-morpholin-4-ylmethyl)-piperazin-1-yl]-ethanone dihydrochloride], the inhibition at 0.04 µM in test [1] was 55%. For the same molecule, in test [2], the inhibition at […] worked out at 96%. Also, the EC50 in test [3] (setting [7]) was found to be 0.0021 µM.

For `COC[C@H]1CN[C@H](C)CN1CC(=O)N1CC(C)(C)c2cnc(C3CCCCC3)cc21` [Example 118, 1-{6-Cyclohexyl-3,3-dimethyl-1H,2H,3H-pyrrolo[3,2-c]pyridin-1-yl}-2-[(2R,5R)-2-(methoxymethyl)-5-methylpiperazin-1-yl]ethan-1-one dihydrochloride], the IC50 was determined as 0.71 µM in test [1] and 0.24 µM in test [2] (setting [9]). The EC50 in test [3] (setting [10]) was determined as 3.4 µM.

On to `COC[C@H]1CN[C@H](C)CN1CC(=O)N1C[C@](C)(c2cc(C)no2)c2ccc(Cc3ccccc3)cc21` [Example 174, 1-[(3R)-6-Benzyl-3-methyl-3-(3-methyl-1,2-oxazol-5-yl)-2,3-dihydro-1H-indol-1-yl]-2-[(2R,5R)-2-(methoxymethyl)-5-methylpiperazin-1-yl]ethan-1-one hydrochloride], for which the IC50 in test [1] is 0.76 µM; in test [2] it was less than 1 µM; in test [2] (setting [5]), 0.19 µM. The EC50 in test [3] (setting [7]) was 2.5 µM.

As for `CNC(=O)[C@H]1CN[C@H](C)CN1CC(=O)N1CC(C)(C)c2cc(F)c(S(=O)(=O)c3ccccc3)cc21` [Example 56, (2R,5R)-1-[2-(6-Benzenesulfonyl-5-fluoro-3,3-dimethyl-2,3-dihydro-indol-1-yl)-2-oxo-ethyl]-5-methyl-piperazine-2-carboxylic acid methylamide hydrochloride salt], the IC50 in test [1] was 0.11 µM; in test [2] it was less than 1 µM; in test [2] (setting [5]), 0.13 µM. The concentration giving a half-maximal response (EC50) in test [3] (setting [6]) is less than 10 µM; in test [3] (setting [7]), 2.3 µM.

Source of the values: US9018214B2, “Bicyclic heterocycle compounds and their uses in therapy” (Astex Therapeutics Limited, priority 2011, dated 2015).
